Data: patent US6713265B1 (Synaptic Pharmaceutical Corporation, priority 1999, dated 2004)
Read-outs that look alike come from different tables or passages of the source.

What was measured:
rat Y5 receptor [1] = target: T1, rat Y5 receptor (Rattus norvegicus, UniProt Q63634); assay: Radioligand binding to membranes of cells expressing cloned rat Y5 receptor; conditions: BIBP 3226 at cloned rat Y-type receptors
T1 construct: expressed in transfected cells; host or cells: COS-7 (transient, DEAE-dextran)

human Y4 receptor = target: T2, human Y4 receptor (Homo sapiens, UniProt P50391); assay: ^125I-PYY binding to membranes, cloned human Y4 receptor
T2 construct: expressed in transfected cells; host or cells: COS-7 (transient)

human Y2 receptor = target: T3, human Y2 receptor (Homo sapiens, UniProt P49146); assay: ^125I-PYY binding to membranes, cloned human Y2 receptor
T3 construct: expressed in transfected cells; host or cells: COS-7 (transient)
T3 sequence (P49146 1-381): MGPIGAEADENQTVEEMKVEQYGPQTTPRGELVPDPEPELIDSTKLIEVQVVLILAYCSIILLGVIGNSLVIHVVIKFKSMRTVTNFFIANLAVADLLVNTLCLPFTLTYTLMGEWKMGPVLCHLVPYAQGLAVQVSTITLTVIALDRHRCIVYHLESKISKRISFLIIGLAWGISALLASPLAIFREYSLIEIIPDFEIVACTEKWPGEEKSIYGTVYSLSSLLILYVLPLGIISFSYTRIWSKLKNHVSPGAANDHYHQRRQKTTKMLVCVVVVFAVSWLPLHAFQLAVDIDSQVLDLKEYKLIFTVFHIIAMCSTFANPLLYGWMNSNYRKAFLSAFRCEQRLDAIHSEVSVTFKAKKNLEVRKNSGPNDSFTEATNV

rat Y4 receptor = target: T4, rat Y4 receptor (Rattus norvegicus, UniProt Q63447); assay: ^125I-PYY binding to membranes, cloned rat Y4 receptor; conditions: BIBP 3226 at cloned rat Y-type receptors
T4 construct: expressed in transfected cells; host or cells: COS-7 (transient)

human Y5 receptor [2] = assay: Radioligand binding to membranes of cells expressing cloned human Y5 receptor; conditions: BIBP 3226 at cloned human Y-type receptors
canine Y5 receptor = assay: Porcine ^125I-PYY binding to membranes of COS-7 cells transfected with canine Y5 receptor; conditions: COS-7 transient
rat Y5 receptor [3] = assay: Radioimmunoassay of cAMP, 293 cells stably expressing rat Y5 receptor; type: cell-based; conditions: concentrations up to 1 μM
rat Y2 receptor [4] = target: T5, rat Y2 receptor (Rattus norvegicus, UniProt Q9ERC0); assay: Antagonism of NPY- or PP-induced activation of rat Y2 receptors; type: cell-based; conditions: concentrations up to 1 μM
rat Y2 receptor [5] = target: T5, rat Y2 receptor; assay: ^125I-PYY binding to membranes, cloned rat Y2 receptor; set-up: expressed in transfected cells; host or cells: COS-7 (transient); conditions: BIBP 3226 at cloned rat Y-type receptors
food intake = assay: Food intake in food-deprived rats; type: in vivo, rat; conditions: Rattus norvegicus, ip, 2 h; 30 mg/kg i.p., after 24h food deprivation, two hours; read-out: Two-hour food intake of food-deprived rats, percentage of intake compared to control rats, Mean
Experimental: After receipt, the animals are individually housed for the duration of the study and allowed free access to normal food together with tap water. The animals are maintained in a room with a 12 h light/dark cycle (8:00 a.m. to 8:00 p.m. light) at 24° C. and monitored humidity. After placement into individual cages the rats undergo a 4 day equilibration period, during which they are habituated to their new environment and to eating a powdered or pellet diet NAFAG, Gossau, Switzerland).
At the end of the equilibration period, food is removed from the animals for 24 hours starting at 8:00 a.m. At the end of the fasting period compound or vehicle may be administered to the animals orally or by injection intraperitoneally or intravenously. After 10-60 min. food is returned to the animals and their food intake is monitored at various time periods during the following 24 hour period. The food intake of animals treated with test compound may be calculated as a percentage of the food intake of control animals (i.e., animals treated with vehicle). Alternatively, food intake for each group of animals subjected to a particular experimental condition may be expressed as the mean±S.E.M.
Measurements were performed two hours after administration of the test compound.

5HT1F = target: T6, 5HT1F (Homo sapiens, UniProt P30939); assay: Binding at cloned human 5HT1F receptor; conditions: read-out: pKi 5HT1F (converted)
T6 construct: expressed in transfected cells; host or cells: LM(tk-), line L-5-HT1F (ATCC 10957)
From the text: (§1) The cell line for the 5HT1Dα receptor, designated as Ltk-8-30-84, was deposited on Apr. 17, 1990, and accorded ATCC Accession No. CRL 10421. The cell for the 5HT1Dβ receptor, designated as Ltk-11, was deposited on Apr. 17, 1990, and accorded ATCC Accession No. CRL 10422. The cell line for the 5HT1E receptor, designated 5 HT1E-7, was deposited on Nov. 6, 1991, and accorded ATCC Accession No. CRL 10913. The cell line for the ^5HT1F receptor, designated L-5-HT1F, was deposited on Dec. 27, 1991, and accorded ATCC Accession No. ATCC 10957. Membrane preparations comprising these receptors were prepared as described below, and suspended in 50 mM Tris-HCl buffer (pH 7.4 at 37° C.) containing 10 mM MgCl2, 0.2 mM EDTA, 10 μM pargyline, and 0.1% ascorbate. The binding of compounds was determined in competition binding assays by incubation for 30 minutes at 37° C. in the presence of 5 nM [^3H]serotonin.

5HT1E = 5HT1E (Homo sapiens, UniProt P28566); assay: Binding at cloned human 5HT1E receptor; conditions: read-out: pKi 5HT1E (converted)
From the text: as §1

human Y1 receptor = target: T7, human Y1 receptor (Homo sapiens, UniProt P25929); assay: ^125I-PYY binding to membranes, cloned human Y1 receptor
T7 construct: expressed in transfected cells; host or cells: COS-7 (transient)
T7 sequence (P25929 1-384): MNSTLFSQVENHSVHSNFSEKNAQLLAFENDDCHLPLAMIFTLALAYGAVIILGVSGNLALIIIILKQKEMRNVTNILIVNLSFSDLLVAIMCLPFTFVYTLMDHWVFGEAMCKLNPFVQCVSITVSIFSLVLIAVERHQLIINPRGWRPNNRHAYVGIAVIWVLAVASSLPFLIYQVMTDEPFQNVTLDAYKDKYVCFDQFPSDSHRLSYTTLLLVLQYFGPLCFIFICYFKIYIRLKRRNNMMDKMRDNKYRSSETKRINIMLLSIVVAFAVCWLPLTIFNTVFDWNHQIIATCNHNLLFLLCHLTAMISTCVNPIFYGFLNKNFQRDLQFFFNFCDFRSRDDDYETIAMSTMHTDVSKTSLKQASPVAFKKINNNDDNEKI

human Y5 receptor [6] = target: T8, human Y5 receptor (Homo sapiens, UniProt Q15761); assay: Radioligand binding to membranes of cells expressing cloned human Y5 receptor; set-up: Ki Values, Human Y5; apparent Kd; pKd; Ki Values, Human Y5 (LM(tk-; The isolated clone (CG-19) turned out to contain a full length cDNA; The longest open reading frame encodes a 455 amino acid protein; conditions: Table 14; stably transfected LM(tk-) cells
T8 sequence (Q15761 1-445): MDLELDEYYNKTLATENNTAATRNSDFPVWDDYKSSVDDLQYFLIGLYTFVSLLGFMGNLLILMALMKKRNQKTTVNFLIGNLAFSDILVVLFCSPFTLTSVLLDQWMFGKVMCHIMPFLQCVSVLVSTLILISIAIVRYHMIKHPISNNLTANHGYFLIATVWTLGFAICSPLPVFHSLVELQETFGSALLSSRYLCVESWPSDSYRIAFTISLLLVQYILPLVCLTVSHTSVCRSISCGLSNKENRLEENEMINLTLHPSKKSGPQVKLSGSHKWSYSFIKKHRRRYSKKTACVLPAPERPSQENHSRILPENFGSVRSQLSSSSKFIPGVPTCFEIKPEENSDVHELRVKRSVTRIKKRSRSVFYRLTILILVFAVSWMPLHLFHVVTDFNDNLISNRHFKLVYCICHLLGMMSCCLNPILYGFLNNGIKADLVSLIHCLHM

human Y5 receptor [7] = target: T8, human Y5 receptor; assay: Radioimmunoassay of cAMP, cells stably expressing human Y5 receptor; type: cell-based; set-up: Ki Values, Human Y5; apparent Kd; pKd; Ki Values, Human Y5 (LM(tk-; The isolated clone (CG-19) turned out to contain a full length cDNA; The longest open reading frame encodes a 455 amino acid protein; conditions: block of NPY-induced inhibition of cAMP accumulation
Experimental: LM(tk-) cells stably transfected with the human Y5 receptor were routinely converted from an adherent monolayer to a viable suspension. […] The cell suspension was maintained in a shaking incubator at 37° C., 5% CO2 for 24 hours. […] Alternatively, cells may be returned to adherent cell culture in complete DMEM by distribution into 96-well microtiter plates coated with poly-D-lysine (0.01 mg/ml) followed by incubation at 37° C., 5% CO2 for 24 hours.
The maximum inhibition of cAMP accumulation (Emax) and the concentration producing a half-maximal effect (EC50) were determined by nonlinear regression analysis according to a 4 parameter logistic equation.
The ability of the compounds to antagonize the Y-type receptors is reported as the Kb. […] The results shown are representative of at least three independent experiments.

T2 sequence (P50391 whole entry): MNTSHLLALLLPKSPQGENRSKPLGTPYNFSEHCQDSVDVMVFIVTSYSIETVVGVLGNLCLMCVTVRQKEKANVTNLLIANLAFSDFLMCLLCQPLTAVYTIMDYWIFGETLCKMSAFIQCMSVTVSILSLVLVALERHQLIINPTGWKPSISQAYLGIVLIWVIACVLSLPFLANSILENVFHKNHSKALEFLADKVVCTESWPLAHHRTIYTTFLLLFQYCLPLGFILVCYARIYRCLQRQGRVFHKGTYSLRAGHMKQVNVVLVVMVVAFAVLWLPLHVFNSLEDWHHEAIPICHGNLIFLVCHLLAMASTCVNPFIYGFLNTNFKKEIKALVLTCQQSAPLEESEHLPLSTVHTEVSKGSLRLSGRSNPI
T5 sequence (Q9ERC0 1-381): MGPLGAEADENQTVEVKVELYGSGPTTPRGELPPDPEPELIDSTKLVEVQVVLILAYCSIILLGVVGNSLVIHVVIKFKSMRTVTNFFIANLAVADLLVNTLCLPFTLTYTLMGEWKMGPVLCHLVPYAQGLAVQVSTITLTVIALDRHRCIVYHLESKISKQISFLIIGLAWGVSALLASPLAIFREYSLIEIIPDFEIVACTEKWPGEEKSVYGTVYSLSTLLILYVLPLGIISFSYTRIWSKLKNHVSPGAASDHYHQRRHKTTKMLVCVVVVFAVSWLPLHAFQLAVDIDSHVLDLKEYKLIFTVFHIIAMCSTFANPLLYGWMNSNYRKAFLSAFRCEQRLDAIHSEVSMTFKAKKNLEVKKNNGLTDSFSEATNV
T4 sequence (Q63447 whole entry): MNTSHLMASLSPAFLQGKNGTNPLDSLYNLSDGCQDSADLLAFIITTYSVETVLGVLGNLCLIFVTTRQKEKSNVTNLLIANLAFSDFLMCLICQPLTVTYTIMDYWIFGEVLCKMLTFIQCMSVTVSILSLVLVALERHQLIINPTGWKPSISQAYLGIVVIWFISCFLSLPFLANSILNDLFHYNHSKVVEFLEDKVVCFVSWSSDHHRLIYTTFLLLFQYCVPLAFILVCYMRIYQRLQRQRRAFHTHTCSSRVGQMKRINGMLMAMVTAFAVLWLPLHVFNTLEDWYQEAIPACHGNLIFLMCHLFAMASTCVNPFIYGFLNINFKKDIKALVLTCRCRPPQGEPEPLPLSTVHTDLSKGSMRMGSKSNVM
T6 sequence (P30939 whole entry): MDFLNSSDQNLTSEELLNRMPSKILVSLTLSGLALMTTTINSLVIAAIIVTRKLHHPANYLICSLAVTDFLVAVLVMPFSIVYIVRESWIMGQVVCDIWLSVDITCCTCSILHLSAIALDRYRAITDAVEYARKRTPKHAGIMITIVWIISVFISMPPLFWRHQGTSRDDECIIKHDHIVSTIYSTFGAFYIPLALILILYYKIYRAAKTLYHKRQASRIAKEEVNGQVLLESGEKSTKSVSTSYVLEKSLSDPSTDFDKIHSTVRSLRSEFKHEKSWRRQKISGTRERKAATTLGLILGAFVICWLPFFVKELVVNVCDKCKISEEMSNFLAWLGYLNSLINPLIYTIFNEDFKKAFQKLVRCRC
T1 sequence (Q63634 whole entry): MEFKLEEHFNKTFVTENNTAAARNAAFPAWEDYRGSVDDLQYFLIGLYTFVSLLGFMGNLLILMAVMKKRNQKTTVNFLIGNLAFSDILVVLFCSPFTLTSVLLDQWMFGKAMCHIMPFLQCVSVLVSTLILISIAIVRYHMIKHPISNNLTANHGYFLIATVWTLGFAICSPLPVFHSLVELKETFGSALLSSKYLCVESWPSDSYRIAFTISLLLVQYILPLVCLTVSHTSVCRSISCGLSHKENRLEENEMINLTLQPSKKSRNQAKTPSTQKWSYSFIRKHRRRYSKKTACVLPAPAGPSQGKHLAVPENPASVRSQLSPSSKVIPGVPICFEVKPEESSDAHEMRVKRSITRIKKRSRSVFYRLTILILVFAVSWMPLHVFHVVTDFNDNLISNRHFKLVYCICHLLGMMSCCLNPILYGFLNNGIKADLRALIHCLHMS
Sequence of 5HT1E (P28566 whole entry): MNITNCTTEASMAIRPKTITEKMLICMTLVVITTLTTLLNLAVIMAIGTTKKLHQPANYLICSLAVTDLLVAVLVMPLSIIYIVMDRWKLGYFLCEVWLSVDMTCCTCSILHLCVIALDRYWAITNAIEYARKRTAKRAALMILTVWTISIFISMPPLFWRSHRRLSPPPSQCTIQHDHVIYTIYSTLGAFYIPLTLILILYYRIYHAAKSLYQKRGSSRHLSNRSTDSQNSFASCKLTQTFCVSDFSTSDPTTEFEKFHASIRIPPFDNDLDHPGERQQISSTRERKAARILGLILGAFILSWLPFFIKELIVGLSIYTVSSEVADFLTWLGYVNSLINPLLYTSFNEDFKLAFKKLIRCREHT

## NC(N)=NCCC[C@@H](NC(=O)C(c1ccccc1)c1ccccc1)C(=O)NCc1ccc(O)cc1 [BIBP 3226]
Rat Y5 receptor [1]
  Ki: 25 µM
Human Y4 receptor; BIBP 3226 at cloned human Y-type receptors, read-out: Ki, human Y4 receptor
  Ki: 8 µM
Human Y2 receptor; BIBP 3226 at cloned human Y-type receptors, read-out: Ki, human Y2 receptor
  Ki: 6.9 µM
Rat Y4 receptor
  Ki: 0.42 µM
Human Y5 receptor [2]
  Ki: 49 µM
Canine Y5 receptor
  Ki: 17 µM
Rat Y5 receptor [3]
  antagonism of NPY- or PP-induced activation of rat Y5 receptors: no evidence for antagonism
Rat Y2 receptor [4]
  antagonism of NPY- or PP-induced activation of rat Y2 receptors: no evidence for antagonism
Rat Y2 receptor [5]
  Ki: 66 µM

## O=S(=O)(NC[C@H]1CC[C@H](CNC(CO)Cc2ccc(Cl)cc2)CC1)c1cccc2ccccc12 (stereo partly drawn) [Compound 25, Naphthalene-1-sulfonic Acid trans-(4-{[2-(4-Chlorophenyl)-1-hydroxymethyl-ethylamino]-methyl}-cyclohexylmethyl)-amide]
Human Y4 receptor; read-out: Binding Affinity Ki vs. ^125I-PYY, Human Receptor Y4, Table 14, stably transfected LM(tk-) cells
  Ki: 13.1 µM
Human Y2 receptor; read-out: Binding Affinity Ki vs. ^125I-PYY, Human Receptor Y2, Table 14, stably transfected 293 cells (compound 1 also COS-7)
  Ki: 0.851 µM
Food intake
  response vs control in vivo at 30 mg/kg: 32%
5HT1F
  Ki: ≥ 5.01 µM
5HT1E
  Ki: ≥ 5.01 µM

## NCC(Cc1ccccc1)Nc1cccc2ccccc12 (stereo not shown) [Compound 28]
Human Y4 receptor; Table 14, stably transfected LM(tk-) cells
  Ki: > 100 µM
Human Y1 receptor
  Ki: > 100 µM
Human Y2 receptor
  Ki: > 75 µM
Human Y5 receptor [6]
  Ki: 19 µM
Human Y5 receptor [7]
  Y5 receptor antagonist activity: Y5 receptor antagonist
